How the values were obtained:
Orco = biological target: T1, Orco (Drosophila melanogaster, UniProt Q9VNB5); experiment: Exogenous membrane protein function after drying-rehydration, Orco stable expression cell line; type: cell-based; settings: 1 hour after drying and rehydration
T1 construct: remnant residues; expressed in transfected cells; host or cells: Pv11 cells (Polypedilum vanderplanki), knock-in at the Pv.00443 locus downstream of the 121 promoter, single-cell sorting
T1 sequence (Q9VNB5 1-486): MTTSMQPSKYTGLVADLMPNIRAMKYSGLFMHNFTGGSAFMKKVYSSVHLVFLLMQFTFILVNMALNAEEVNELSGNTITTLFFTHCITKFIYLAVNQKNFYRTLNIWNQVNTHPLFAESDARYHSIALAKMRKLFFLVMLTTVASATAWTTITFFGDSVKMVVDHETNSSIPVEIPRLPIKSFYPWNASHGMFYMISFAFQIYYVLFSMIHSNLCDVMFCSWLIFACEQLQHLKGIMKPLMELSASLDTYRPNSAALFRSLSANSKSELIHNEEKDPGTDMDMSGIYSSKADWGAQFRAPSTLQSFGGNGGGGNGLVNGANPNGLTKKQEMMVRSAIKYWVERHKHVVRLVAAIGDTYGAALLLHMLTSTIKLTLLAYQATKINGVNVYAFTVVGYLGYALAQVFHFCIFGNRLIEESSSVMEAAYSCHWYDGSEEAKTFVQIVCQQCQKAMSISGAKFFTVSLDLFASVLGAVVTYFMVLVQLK
Protocol: To assess the drought tolerance of the cell lines, the cells were dried according to the following protocol. 4×10^7 Pv11-GCaMP6f stable expression cell lines were centrifuged at 700 g for 3 minutes and the supernatant removed. The precipitated cells were suspended in a 600 mM trehalose mix of 600 mM trehalose and IPL-41 medium at a ratio of 9:1, transferred to a 2 ml flask, and incubated at 25° C. for 48 hours. After 48 hours, the obtained cells were centrifuged at 700 g for 3 minutes and the supernatant was removed. The sedimented cells were suspended in 400 μl of 600 mM trebalose mix, and 40 μl were dropped onto a 35 mm dish. […]
6. […] Using the Orco stable expression cell line and Orco-Or47a stable expression cell line, in order to assess the function of exogenous membrane proteins before drying and after 1 hour of rehydration after drying, fluorescence intensity generated in response to stimulation with VUAA1 (Orco agonist) or pentyl acetate (ligand of Or47a) was measured in the same manner as in 3.2 above.
The fluorescence intensity was digitized from the photograph, and ΔF/F was calculated according to the following formula:
Where the summation Σi=1^n is over the n cells in the image, Fi,after means the fluorescence intensity of the cell i after adding the ligand solution, and Fi,0 means the fluorescence intensity of the cell i before adding the ligand solution. […]

Orco-Or47a = biological target: T2, Orco-Or47a (Drosophila melanogaster, UniProt P81921+Q9VNB5); experiment: Ligand assay using a perfusion system; type: cell-based; set-up: remnant residues; expressed in transfected cells; host or cells: Pv11 cells (Polypedilum vanderplanki), CRIS-PITCh knock-in at the Pv.00443 locus downstream of the 121 promoter, Zeocin selection and single-cell sorting; settings: 1 mM pentyl acetate perfused 5 minutes at 1 mL/min; BAM-fixed cells
T2 sequence (Q9VNB5 1-486): T1 sequence (Q9VNB5 1-486)
T2 sequence (P81921 1-385): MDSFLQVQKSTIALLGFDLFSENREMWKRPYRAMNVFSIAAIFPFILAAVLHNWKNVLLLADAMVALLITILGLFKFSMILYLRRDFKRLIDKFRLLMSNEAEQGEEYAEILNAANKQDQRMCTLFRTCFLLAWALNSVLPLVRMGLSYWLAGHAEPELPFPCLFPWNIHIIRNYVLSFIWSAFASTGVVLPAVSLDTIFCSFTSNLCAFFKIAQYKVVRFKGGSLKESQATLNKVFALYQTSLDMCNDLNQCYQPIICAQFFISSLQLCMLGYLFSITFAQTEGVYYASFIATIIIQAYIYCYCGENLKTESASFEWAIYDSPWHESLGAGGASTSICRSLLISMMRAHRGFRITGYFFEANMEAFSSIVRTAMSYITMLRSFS
Protocol: 9.1 Ligand assay. A ligand assay was performed using a perfusion system using Orco-Or47a stable expression cell line and GCaMP6f stable expression cell line. […] The Orco-Or47a stable expression cell line and the GCaMP6f stable expression cell line were fixed with BAM as described in 8.1 above and perfused at a flow rate of 1 mL/min using a peristaltic pump (SJ-1211 II-L2, ATTO). The perfusion solution was ACSF buffer (125 mM NaCl, 5.6 mM KCl, 1.25 mM Na2HPO4, 10 mM HEPES, 1.5 mM CaCl2), pH7.4) as a standard solution. As a ligand for Or47a, pentyl acetate was diluted to a final concentration of 1 mM, and as a negative control, DMSO was diluted to 1% by mass. The standard solution was perfused, switched to 1 mM pentyl acetate solution or 1% by mass DMSO solution, and perfusion was performed for 5 minutes. Photographing of the cells was started after waiting for the 1 mM pentyl acetate solution or 1% by mass DMSO solution to reach the cells in about 60 seconds. Bright-field and fluorescence images of the perfused Pv11 cells were taken 30 times at 10-second intervals (LSM700, ZEISS). The method for obtaining ΔF/F0 was as described above. 25 cells were selected from the captured image, each produced ΔF/F0, and the response was maintained for about 4 minutes; from this it was confirmed that the present disclosure can be applied as an odor sensor capable of rapid odor determination.

Compound	fluorescence on stimulation (Orco)	time the response was maintained (Orco-Or47a)
CCc1ccc(NC(=O)CSc2nnc(-c3cccnc3)n2CC)cc1 [VUAA1, N-(4-ethylphenyl)-2-{[4-ethyl-5-(pyridin-3-yl)-4H-1,2,4-triazol-3-yl]sulfanyl}acetamide]	fluorescence was observed	–
CCCCCOC(C)=O [pentyl acetate]	–	about 4 minutes

Source: patent US20250197799A1, “CELLS DERIVED FROM POLYPEDILUM VANDERPLANKI AND ODOR SENSOR EQUIPPED THEREWITH” (University of Maryland, College Park, priority 2022, published 2025)
